Results from PMC6173696, “Structural properties of a haemophore facilitate targeted elimination of the pathogen Porphyromonas gingivalis” (Nature Communications, 2018).

Experiments:
[1] = biological target: T1, p22HBP (Mus musculus, UniProt Q9R257); test: Acid-alkaline transition of UV-vis spectra, haemin bound to p22HBP; assay type: physicochemical; settings: haemin bound to murine p22HBP
T1 sequence (Q9R257 1-190): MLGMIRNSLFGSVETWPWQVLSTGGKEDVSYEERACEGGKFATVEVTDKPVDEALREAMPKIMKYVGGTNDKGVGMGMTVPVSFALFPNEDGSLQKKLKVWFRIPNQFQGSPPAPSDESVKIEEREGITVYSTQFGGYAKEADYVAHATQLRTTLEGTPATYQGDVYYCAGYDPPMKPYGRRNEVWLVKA
Description: Supplementary Figure 16. Acid-alkaline transition in UV-vis spectra of various haem binding proteins. (Top) UV-visible spectra (units of wavelength are nm) used to generate the pH titration curves shown in Figure 2h and in the bottom panel. (Bottom) Acid-alkaline titration of 5 µM haemin in presence of 7 µM IsdH, 5 µM IsdB, 7 µM IsdH(Y642A) and 7 µM p22HBP. All proteins are in holo form. See Fig 2h legend for buffer conditions. Absorbance A600–A650 values are plotted except for IsdH and IsdB, for which A630–A600 is plotted (to avoid negative values). […]

[2] = tested on: H413 gingival epithelial cell; assay type: cell-based, Human
Description: Human gingival epithelial cells were grown to confluence and seeded on plastic chamber slides (75 × 25 mm^2) for incubation in 5% CO2 atmosphere overnight. Bacterial cells were co-incubated with epithelial cells at 37 °C for 2 h. After exposure to the antibiotics, epithelial cells were washed in PBS and incubated in culture media containing 5% FCS for 24 h. Subsequently, samples in the chamber slides were fixed with 4% fresh paraformaldehyde in PBS for 30 min at room temperature, washed in PBS, and permeabilised by ice-cold methanol for 5 min. Samples were then blocked overnight with 10% FCS supplemented with 0.05% (v/v) Triton X-100 in PBS buffer. Intracellular P. gingivalis was stained using the primary antibody IIB2[44] and fluorochrome-conjugated secondary antibody. […] Labelled epithelial cells with invaded bacteria were detected using an Olympus FV1000 confocal laser scanning microscope. In addition, the intrinsic fluorescence of P8 allowed temporal tracking of internalisation of P8 into epithelial cells in a separate experiment. Live cell images were recorded using a DeltaVision Elite Core Microscope.
Supplementary Figure 23. (A) UV-vis spectra of 10 µM P8 alone and in the presence of 10 µM HusA. (B) Stability assay of P8 in the presence of gingival epithelial cell lysate. The intensity of P8 fluorescence was applied to monitor the stability of P8 in the presence of cell lysate. […]

[3] = tested on: P. gingivalis wild-type W83; test: Checkerboard / broth micro-dilution assay (MIC, MBC), wild-type W83; assay type: cell-based, Porphyromonas gingivalis
Text: (§1) Fig. 5 A prototype DPIX-conjugated antibiotic binds HusA and inhibits P. gingivalis. a The chemical structure of the deuteroporphyrin-lysine-metronidazole adduct, P8. b NMR signal intensity changes (black) and ^1H^N CSPs (red/green) for HusA upon addition of P8 (measured from ^15N-HSQC spectra shown in Supplementary Figure 21). c In silico docking of P8 to the energy minimized structure of HusA (conformer set 1), with residues experiencing NMR signal loss (orange) or CSPs (red/green) mapped to the structure (colouring as described in Fig. 2d). d Scaled and corrected fluorescence at 335 nm during titration of 1 μM of HusA with increasing concentrations of P8, haemin or DPIX. e Comparison of P8 inhibitory effect towards P. gingivalis wild-type W83 and husA mutants using checkerboard analysis. Serial dilutions of antibiotics (horizontal axis) were applied to a 96-well plate with different P. gingivalis strains (vertical axis). Serial dilutions of DPIX were also supplemented into wild-type W83 group to evaluate the competitive effect against P8. Absorption at OD600 of each well was recorded after 24 h of incubation. The OD600 of each strain grown in the absence of antibiotics was defined as 100% growth, which was applied to normalise the reading collected from other wells. The normalised percentage of each well was plotted in the checkerboard. Metronidazole alone and in combination with PPIX or DPIX was applied as control. f Intracellular killing assay of P8 antibiotics. Gingival H413 epithelial cells were infected by P. gingivalis W83 and then treated with P8 at various concentrations. Recovered bacteria were determined by CFU count. Metronidazole and DMSO were used as control. Three independent experiments with triplicate assays were conducted. […]

[4] = tested on: P. gingivalis W83 within gingival H413 epithelial cells; test: Intracellular killing assay in infected H413 epithelial cells; assay type: cell-based, Porphyromonas gingivalis; settings: H413 cells infected by W83, CFU count
Text: as §1, with “The normalised percentage of each well was plotted in the checkerboard. Metronidazole alone and in combination with PPIX or DPIX was applied as control. f Intracellular killing assay of P8 antibiotics. Gingival H413 epithelial cells were infected by P. gingivalis W83 and then treated with P8 at various concentrations.” left out, “count.” for “count. Metronidazole and DMSO were used as control. Three independent experiments with triplicate assays were conducted.”

Compound | pKa of acid-alkaline transition [1] | integrity of epithelial cells (confocal images) ([2]; 20 µM P8) | accumulation in epithelial cells ([2]; over a 2-h period) | MBC ([3]; Porphyromonas gingivalis, no growth recovery on eTSB agar plate, read-out: minimal bactericidal concentration) [µM] | MIC ([3]; Porphyromonas gingivalis, planktonic W83, 24 h, anaerobic, read-out: minimal inhibitory concentration) [µM] | killing of extracellular P. gingivalis ([3]; planktonic W83) | killing of intracellular P. gingivalis [4]
C=CC1=C(C)c2cc3[nH]c(cc4nc(cc5[nH]c(cc1n2)c(C)c5CCC(=O)O)C(CCC(=O)O)=C4C)c(C)c3C=C.[Fe+3] [haemin] | 6.2 | – | – | – | – | – | –
CC1=Cc2cc3[nH]c(cc4nc(cc5[nH]c(cc1n2)cc5C)C(C)=C4CCC(=O)N[C@@H](CCCCNC(=O)OC(C)(C)C)C(=O)NCCn1c([N+](=O)[O-])cnc1C)c(CCC(=O)O)c3C [P8] | – | remain intact | progressive accumulation | 10 to 20 | 1.25 to 2.5 | more effective than metronidazole | more effective than metronidazole
